Values of other authors in US9937154B2, “Use of telmisartan to prevent and treat graft versus host disease and other alloimmune and autoimmune diseases” (Hackensack University Medical Center, priority 2015, dated 2018).
Read-outs that look alike come from different tables or passages of the source.

Experiments:
[1] = tested on: patients with mild to moderate hypertension; conditions: cited from earlier work
[2] = tested on: patients treated with MICARDIS; conditions: cited from earlier work
lymphocyte chemotaxis = conditions: in part SDF-1 induced chemotaxis; cited from earlier work
rat colitis = conditions: chemically induced acute colitis, cited from earlier work
[3] = tested on: Tregs:autoreactive Th17 cells; conditions: cited from earlier work
cytochrome P450 enzymes = conditions: cited from earlier work
[4] = tested on: corneal neovascularization; conditions: corneal systems; cited from earlier work
[5] = tested on: plasma proteins, mainly albumin and orosomucoid; conditions: cited from earlier work
ROCK = conditions: cited from earlier work
[6] = cited from earlier work
CYP2C19 = CYP2C19 (Homo sapiens, UniProt P33261); conditions: in vitro; cited from earlier work
[7] = cited from earlier work; remark: listed apart in the source
[8] = 80 or 160 mg per day; cited from earlier work

Sequence of CYP2C19 (P33261 whole entry): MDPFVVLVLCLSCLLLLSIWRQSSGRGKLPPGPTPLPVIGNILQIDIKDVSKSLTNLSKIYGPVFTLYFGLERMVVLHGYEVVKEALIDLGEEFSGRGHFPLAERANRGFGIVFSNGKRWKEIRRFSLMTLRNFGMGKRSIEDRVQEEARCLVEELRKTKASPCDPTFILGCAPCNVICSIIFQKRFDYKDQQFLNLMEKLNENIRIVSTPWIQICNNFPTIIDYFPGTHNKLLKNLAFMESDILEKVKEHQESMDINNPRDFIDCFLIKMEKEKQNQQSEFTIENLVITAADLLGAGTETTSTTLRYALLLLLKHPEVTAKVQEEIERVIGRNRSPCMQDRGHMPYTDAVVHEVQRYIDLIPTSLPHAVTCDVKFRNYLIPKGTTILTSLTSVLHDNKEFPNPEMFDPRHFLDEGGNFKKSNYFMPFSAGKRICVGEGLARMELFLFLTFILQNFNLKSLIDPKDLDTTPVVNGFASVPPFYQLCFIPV

## CCCc1nc2c(C)cc(-c3nc4ccccc4n3C)cc2n1Cc1ccc(-c2ccccc2C(=O)O)cc1 [Telmisartan, telmisartan]
[1]; 20 mg once daily
  DBP reduction from baseline after placebo subtraction: ~6 mm Hg
  SBP reduction from baseline after placebo subtraction: 6-8 mm Hg
[1]; 40 mg once daily
  DBP reduction from baseline after placebo subtraction: 6-8 mm Hg
  SBP reduction from baseline after placebo subtraction: 9-13 mm Hg
[1]; 80 mg once daily
  DBP reduction from baseline after placebo subtraction: 7-8 mm Hg
  SBP reduction from baseline after placebo subtraction: 12-13 mm Hg
[1]; after initiation of treatment
  time to maximal blood pressure reduction: ~4 weeks
[1]; after the first dose, all controlled trials
  incidence of symptomatic orthostasis: 0.04%
[2]; 6 placebo-controlled trials, identical to placebo
  incidence of cough: 1.6%
[2]; n = 1455
  incidence of back pain: 3%
  incidence of diarrhea: 3%
  incidence of pharyngitis: 1%
  incidence of sinusitis: 3%
  incidence of upper respiratory tract infection: 7%
[2]; of 1455 patients, placebo-controlled clinical trials
  discontinuation of therapy because of adverse events: 2.8%
Lymphocyte chemotaxis
  lymphocyte chemotaxis: abrogate lymphocyte chemotaxis
Rat colitis; listed as telmisartan
  effect on colitis: anti-inflammatory effects
Rat colitis
  effect on colitis: protective effect against rat colitis
[3]
  ratio of protective Tregs:autoreactive Th17 cells: increase the ratio
Cytochrome P450 enzymes
  metabolism by the cytochrome P450 system: not metabolized
Cytochrome P450 enzymes; except CYP2C19
  effects in vitro on cytochrome P450 enzymes: no effects
[4]
  neovascularization: prevent neovascularization
[5]
  bound to plasma proteins: > 99.5%
ROCK
  potency as ROCK inhibitor compared with Y-27632: as potent an inhibitor of ROCK as Y-27632
[6]; 40 mg tablet
  reduction in AUC by food: about 6%
[6]; 160 mg dose
  reduction in AUC by food: about 20%
[6]; in vivo
  terminal elimination half-life: approximately 24 hours
  volume of distribution: approximately 500 liters
CYP2C19
  inhibition of CYP2C19: some inhibition
[7]; intravenous administration
  amount found in urine: 0.91 % of total radioactivity
[7]; intravenous or oral 14C-labeled telmisartan
  administered dose eliminated unchanged in feces via biliary excretion: > 97%
[7]; oral administration
  amount found in urine: 0.49 % of total radioactivity
[8]
  incidence of reported poor tolerability: 0.5%
